ChEMBL document CHEMBL5665443, “Enzyme Inhibitor Single Concentration assay results for EUbOPEN Chemogenomics Library” (2024)

Experiments:
[1] = molecular target: N-glycosylase/DNA lyase (Homo sapiens) (UniProt O15527);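 further: OGG1 cleavage of a quenched duplex DNA oligonucleotide, coupled to APE1 for strand incision, read as fluorescence at 594 nm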
Description: Inhibition of OGG1 by quantifying inhibition of OGG1-mediated cleavage and dissociation of quenched duplex DNA oligonucleotides, measured as fluorescence at 594 nm. To generate a functional strand incision and increase turn-over this assay is coupled to APE1.

[2] = molecular target: Endonuclease 8-like 1 (Homo sapiens) (UniProt Q96FI4); details: Hit No;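 further: fluorescence at 594 nm from quenched duplex DNA oligonucleotides released by NEIL1 cleavage and strand separation, reported as reduction of this enzyme activity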
Endonuclease 8-like 1 (Homo sapiens), sequence (Q96FI4 whole entry): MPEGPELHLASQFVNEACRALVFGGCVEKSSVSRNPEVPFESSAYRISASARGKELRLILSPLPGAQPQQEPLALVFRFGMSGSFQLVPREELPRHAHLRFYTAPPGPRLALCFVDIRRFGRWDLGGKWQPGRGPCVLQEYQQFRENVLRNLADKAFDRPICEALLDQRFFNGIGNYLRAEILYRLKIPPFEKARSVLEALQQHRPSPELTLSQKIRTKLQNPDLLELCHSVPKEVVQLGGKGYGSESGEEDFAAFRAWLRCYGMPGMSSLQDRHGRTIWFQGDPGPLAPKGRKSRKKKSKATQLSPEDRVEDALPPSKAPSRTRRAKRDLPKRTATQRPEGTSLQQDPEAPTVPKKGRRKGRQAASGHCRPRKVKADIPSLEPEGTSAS
Description: Inhibition of NEIL1 by quantifying inhibition of NEIL1-mediated cleavage and dissociation of quenched duplex DNA oligonucleotides, measured as fluorescence at 594 nm.

[3] = molecular target: Uracil-DNA glycosylase (Homo sapiens) (UniProt P13051); details: Hit No;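 further: UNG excision on a quenched double-stranded DNA oligo probe, with APE1 added for strand incision and turnover, read as fluorescence at 594 nm as strands separate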
Uracil-DNA glycosylase (Homo sapiens), sequence (P13051 whole entry): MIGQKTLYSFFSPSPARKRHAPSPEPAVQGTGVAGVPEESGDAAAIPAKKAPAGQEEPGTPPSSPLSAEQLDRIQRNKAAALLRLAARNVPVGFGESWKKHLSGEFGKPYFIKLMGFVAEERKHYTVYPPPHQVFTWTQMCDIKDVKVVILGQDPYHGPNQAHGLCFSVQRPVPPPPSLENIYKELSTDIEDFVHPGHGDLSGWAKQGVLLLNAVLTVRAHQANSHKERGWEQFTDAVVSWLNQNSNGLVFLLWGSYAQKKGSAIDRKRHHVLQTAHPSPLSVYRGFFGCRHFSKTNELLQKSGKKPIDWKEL
Description: Inhibition of UNG by quantifying inhibition of UNG-mediated cleavage and dissociation of quenched duplex DNA oligonucleotides, measured as fluorescence at 594 nm. To generate a functional strand incision and increase turn-over this assay is coupled to APE1.

[4] = molecular target: T1, Endonuclease III-like protein 1 (Homo sapiens) (UniProt P78549); details: Hit No;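 further: enzyme assay tracking NTHL1 cutting and release of a quenched double-stranded DNA oligo substrate, read as fluorescence at 594 nm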
T1 sequence (whole entry): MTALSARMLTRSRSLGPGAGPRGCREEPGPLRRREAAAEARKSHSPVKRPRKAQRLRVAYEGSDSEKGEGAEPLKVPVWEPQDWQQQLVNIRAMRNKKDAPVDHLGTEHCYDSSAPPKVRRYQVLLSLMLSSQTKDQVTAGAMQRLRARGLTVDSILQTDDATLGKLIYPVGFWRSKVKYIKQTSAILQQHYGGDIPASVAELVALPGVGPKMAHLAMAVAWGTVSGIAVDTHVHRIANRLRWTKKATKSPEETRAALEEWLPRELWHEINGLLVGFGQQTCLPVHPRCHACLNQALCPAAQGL
Description: Inhibition of NTHL1 by quantifying inhibition of NTHL1-mediated cleavage and dissociation of quenched duplex DNA oligonucleotides, measured as fluorescence at 594 nm.

[5] = molecular target: T2, Single-strand selective monofunctional uracil DNA glycosylase (Homo sapiens) (UniProt Q53HV7); details: Hit No;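 further: enzymatic SMUG1 assay coupled with APE1, reading fluorescence at 594 nm released when a quenched double-stranded DNA oligonucleotide substrate is cleaved and separated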
T2 sequence (whole entry): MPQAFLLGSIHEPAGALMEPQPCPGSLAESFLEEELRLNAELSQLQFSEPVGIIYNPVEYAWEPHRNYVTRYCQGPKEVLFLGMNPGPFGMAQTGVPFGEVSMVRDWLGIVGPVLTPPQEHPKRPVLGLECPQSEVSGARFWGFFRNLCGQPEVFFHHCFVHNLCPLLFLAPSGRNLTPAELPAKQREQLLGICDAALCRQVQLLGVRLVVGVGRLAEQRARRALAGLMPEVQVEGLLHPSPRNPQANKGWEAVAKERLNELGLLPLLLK
Description: Inhibition of SMUG1 by quantifying inhibition of SMUG1-mediated cleavage and dissociation of quenched duplex DNA oligonucleotides, measured as fluorescence at 594 nm. To generate a functional strand incision and increase turn-over this assay is coupled to APE1.

[6] = molecular target: T3, Adenine DNA glycosylase (Homo sapiens) (UniProt Q9UIF7); details: Hit No;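 further: human MUTYH activity read as 594 nm fluorescence from cleavage and release of a quenched DNA duplex, coupled with APE1 for strand incision, lower signal meaning inhibition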
T3 sequence (whole entry): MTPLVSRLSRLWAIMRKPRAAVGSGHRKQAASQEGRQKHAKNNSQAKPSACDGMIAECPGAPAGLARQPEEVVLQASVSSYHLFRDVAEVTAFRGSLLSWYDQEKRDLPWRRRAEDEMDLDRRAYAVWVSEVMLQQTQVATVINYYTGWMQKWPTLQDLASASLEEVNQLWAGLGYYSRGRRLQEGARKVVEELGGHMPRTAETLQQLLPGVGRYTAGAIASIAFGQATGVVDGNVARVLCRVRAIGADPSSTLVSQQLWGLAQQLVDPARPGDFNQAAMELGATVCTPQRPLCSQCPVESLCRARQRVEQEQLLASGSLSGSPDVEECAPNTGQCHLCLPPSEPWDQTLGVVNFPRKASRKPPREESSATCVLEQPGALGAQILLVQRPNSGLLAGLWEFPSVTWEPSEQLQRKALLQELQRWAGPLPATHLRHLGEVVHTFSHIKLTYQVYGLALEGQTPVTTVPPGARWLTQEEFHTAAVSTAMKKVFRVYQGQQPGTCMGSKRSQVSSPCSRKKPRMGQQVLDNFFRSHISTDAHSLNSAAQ
Description: Inhibition of MUTYH by quantifying inhibition of MUTYH-mediated cleavage and dissociation of quenched duplex DNA oligonucleotides, measured as fluorescence at 594 nm. To generate a functional strand incision and increase turn-over this assay is coupled to APE1.

[7] = molecular target: T4, Endonuclease 8-like 2 (Homo sapiens) (UniProt Q969S2); details: Hit No;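 further: fluorescence at 594 nm reports NEIL2 cutting and release of a quenched double-stranded DNA oligo substrate, reduced signal read as inhibition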
T4 sequence (whole entry): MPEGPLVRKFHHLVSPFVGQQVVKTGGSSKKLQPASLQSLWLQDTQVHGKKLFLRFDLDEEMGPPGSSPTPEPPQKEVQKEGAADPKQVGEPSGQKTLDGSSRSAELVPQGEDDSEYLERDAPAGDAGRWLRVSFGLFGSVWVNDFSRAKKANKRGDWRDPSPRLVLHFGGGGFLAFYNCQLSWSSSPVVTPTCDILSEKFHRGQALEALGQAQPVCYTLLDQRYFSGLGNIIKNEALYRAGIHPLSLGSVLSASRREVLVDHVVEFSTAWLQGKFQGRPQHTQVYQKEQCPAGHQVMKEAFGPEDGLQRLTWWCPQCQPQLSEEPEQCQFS
Description: Inhibition of NEIL2 by quantifying inhibition of NEIL2-mediated cleavage and dissociation of quenched duplex DNA oligonucleotides, measured as fluorescence at 594 nm.

[8] = molecular target: G/T mismatch-specific thymine DNA glycosylase (Homo sapiens) (UniProt Q13569); details: Hit No;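 further: human TDG cleavage of quenched duplex DNA oligonucleotides coupled to APE1, strand release read as fluorescence at 594 nm, inhibition of TDG activity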
G/T mismatch-specific thymine DNA glycosylase (Homo sapiens), sequence (Q13569 whole entry): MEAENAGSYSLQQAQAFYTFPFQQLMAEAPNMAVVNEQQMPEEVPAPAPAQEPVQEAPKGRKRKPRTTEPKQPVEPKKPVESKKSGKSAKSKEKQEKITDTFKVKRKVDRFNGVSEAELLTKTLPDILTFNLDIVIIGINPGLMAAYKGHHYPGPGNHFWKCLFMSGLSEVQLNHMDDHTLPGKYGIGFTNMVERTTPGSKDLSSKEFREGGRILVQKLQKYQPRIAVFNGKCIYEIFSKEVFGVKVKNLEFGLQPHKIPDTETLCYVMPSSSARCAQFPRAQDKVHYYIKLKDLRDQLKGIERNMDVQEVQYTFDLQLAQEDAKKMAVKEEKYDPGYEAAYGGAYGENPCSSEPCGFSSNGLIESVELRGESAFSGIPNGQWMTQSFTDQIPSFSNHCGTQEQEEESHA
Description: Inhibition of TDG by quantifying inhibition of TDG-mediated cleavage and dissociation of quenched duplex DNA oligonucleotides, measured as fluorescence at 594 nm. To generate a functional strand incision and increase turn-over this assay is coupled to APE1.

[9] = molecular target: DNA-3-methyladenine glycosylase (Homo sapiens) (UniProt P29372); details: Hit No;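 further: enzyme assay where MPG cuts a quenched duplex DNA oligonucleotide probe, paired with APE1 for strand incision and turnover, read as fluorescence at 594 nm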
DNA-3-methyladenine glycosylase (Homo sapiens), sequence (P29372 whole entry, the tested form may be a part): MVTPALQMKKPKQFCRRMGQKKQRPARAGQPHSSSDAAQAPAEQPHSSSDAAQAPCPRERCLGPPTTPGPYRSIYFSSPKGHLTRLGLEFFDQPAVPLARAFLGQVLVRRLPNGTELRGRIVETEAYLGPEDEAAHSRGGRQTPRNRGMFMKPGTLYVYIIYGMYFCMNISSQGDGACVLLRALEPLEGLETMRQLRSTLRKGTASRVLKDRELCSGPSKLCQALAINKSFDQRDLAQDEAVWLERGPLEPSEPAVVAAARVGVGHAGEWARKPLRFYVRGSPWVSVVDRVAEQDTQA
Description: Inhibition of MPG by quantifying inhibition of MPG-mediated cleavage and dissociation of quenched duplex DNA oligonucleotides, measured as fluorescence at 594 nm. To generate a functional strand incision and increase turn-over this assay is coupled to APE1.

[10] = molecular target: Methyl-CpG-binding domain protein 4 (Homo sapiens) (UniProt O95243); details: Hit No;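 further: MBD4 activity read as fluorescence at 594 nm from cleavage and release of a quenched duplex DNA oligonucleotide, with APE1 coupled to incise the strand and raise turnover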
Methyl-CpG-binding domain protein 4 (Homo sapiens), sequence (O95243 whole entry, the tested form may be a part): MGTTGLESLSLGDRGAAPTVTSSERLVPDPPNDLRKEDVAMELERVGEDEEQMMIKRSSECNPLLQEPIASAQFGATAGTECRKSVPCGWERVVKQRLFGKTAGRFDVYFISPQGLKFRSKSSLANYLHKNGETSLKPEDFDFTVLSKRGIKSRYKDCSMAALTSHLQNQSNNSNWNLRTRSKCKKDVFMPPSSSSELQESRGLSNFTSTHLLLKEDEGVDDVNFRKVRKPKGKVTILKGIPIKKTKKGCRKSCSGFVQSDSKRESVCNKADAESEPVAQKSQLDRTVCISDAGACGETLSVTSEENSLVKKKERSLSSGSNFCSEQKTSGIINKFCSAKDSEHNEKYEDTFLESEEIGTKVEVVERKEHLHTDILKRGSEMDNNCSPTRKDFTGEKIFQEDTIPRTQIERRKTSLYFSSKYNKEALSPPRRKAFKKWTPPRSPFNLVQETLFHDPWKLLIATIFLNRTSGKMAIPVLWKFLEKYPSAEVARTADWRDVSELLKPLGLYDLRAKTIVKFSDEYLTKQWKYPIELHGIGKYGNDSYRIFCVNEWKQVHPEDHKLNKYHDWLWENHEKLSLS
Description: Inhibition of MBD4 by quantifying inhibition of MBD4-mediated cleavage and dissociation of quenched duplex DNA oligonucleotides, measured as fluorescence at 594 nm. To generate a functional strand incision and increase turn-over this assay is coupled to APE1.

[11] = Compound Concentration 10.0 uM, Hit No

N-glycosylase/DNA lyase (Homo sapiens), sequence (O15527 whole entry): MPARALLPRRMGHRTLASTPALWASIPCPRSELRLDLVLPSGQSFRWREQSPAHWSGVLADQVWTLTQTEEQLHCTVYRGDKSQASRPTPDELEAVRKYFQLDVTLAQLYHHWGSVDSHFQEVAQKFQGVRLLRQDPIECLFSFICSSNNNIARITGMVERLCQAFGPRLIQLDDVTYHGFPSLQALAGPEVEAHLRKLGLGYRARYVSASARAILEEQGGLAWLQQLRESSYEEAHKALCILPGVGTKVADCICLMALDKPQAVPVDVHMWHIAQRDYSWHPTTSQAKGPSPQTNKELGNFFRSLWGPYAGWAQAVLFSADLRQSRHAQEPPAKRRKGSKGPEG

Compound	inhibition [1, 11] [%]	inhibition ([2]; Compound Concentration 10.0 uM) [%]	inhibition ([3]; Compound Concentration 10.0 uM) [%]	inhibition ([4]; Compound Concentration 10.0 uM) [%]	inhibition ([5]; Compound Concentration 10.0 uM) [%]	inhibition ([6]; Compound Concentration 10.0 uM) [%]	inhibition ([7]; Compound Concentration 10.0 uM) [%]	inhibition ([8]; Compound Concentration 10.0 uM) [%]	inhibition ([9]; Compound Concentration 10.0 uM) [%]	inhibition ([10]; Compound Concentration 10.0 uM) [%]	other results
O=c1ccc2c(OCCCCc3ccccc3)c3ccoc3cc2o1	0.716	4.31	-2.86	7.17	0.0989	4.38	2.71	5.01	2.27	-4.82	
O=c1c(Br)ccc2n1C[C@@H]1CNC[C@H]2C1	-1.3	1.79	-0.226	8.82	8.97	-5.79	-6.72	22.8	3.69	13.1	
COc1ccc(CC(=O)NCc2ccccc2-c2ccccc2C(=O)NCc2ccc(F)cc2F)cc1	-0.346	0.75	1.16	-5.21	11	11.7	2.71	13.6	22.4	5.5	
Cc1ccnc(Nc2nc(-c3ccccn3)cs2)c1	-1.19	-0.88	-7.33	17.1	5.18	13.9	9.84	17.8	16	9.11	
NC(=O)NN=Cc1ccc(Oc2ccc(F)cc2)cc1	-9.24	9.49	-5.79	0.568	-4.59	8.22	-3.41	11.3	2.76	-2.63	
N=C(N)NCCSC(=N)N	-4.9	-7.55	-5.32	-1.08	-6.96	-5.42	-9.52	8.29	-0.668	16.4	
COc1cc(Br)c(S(=O)(=O)Nc2ccc(C(F)(F)F)c(O[C@@H]3CCN(C)C3)c2)cc1OC	-7.69	-6.66	-6.21	13.8	-0.0706	-3.82	-4.68	-0.305	-9.93	-1.76	
Cc1cc(C)cc(C(=O)N(C)[C@H](Cc2ccc(-c3ccccc3)cc2)C(=O)N[C@@H](Cc2c[nH]c3ccccc23)C(=O)O)c1	16.2	-1.83	6.08	2.66	4.62	76.9	12.5	48.4	4.38	60.3	
CC[C@H](C(=O)Nc1ccccc1N1CCCC1)c1ccccc1	0.561	13.8	-2.53	2.22	1.62	20.6	3.22	33.1	33.7	34.6	
CN(C)C(=O)c1cc2cnc(Nc3ccc(N4CCNCC4)cn3)nc2n1C1CCCC1	4.33	3.31	8.98	-3.4	21.9	16.4	-0.842	57.4	59.5	24.6	
NS(=O)(=O)c1c(Cl)ccc(NC(=O)Nc2cccc(Cl)c2Cl)c1O	6.41	-2.13	-6.48	29	8.49	10.9	3.51	16.5	14.5	14.2	
COc1ccc(/C=C/CCCCOc2ccc(C(=O)c3cccc(C(=O)O)c3)cc2CCC(=O)O)cc1		-0.204	-7.57	2.66	12.1	28.6	15.7	43.2	15.9	49.9	inhibition ([1]; Compound Concentration 10.0 uM, Hit Yes): 42.4%
O=C(NNC(=O)c1ccc(CNS(=O)(=O)c2ccc(F)c(Cl)c2)cc1)c1ccccc1	13.2	3.71	-0.108	4.7	13.3	22.1	-6.97	16.4	9.45	27	
CCOc1c2c(c(OCC)c3ncccc13)CN(c1ccc(CS(=O)(=O)NC(=O)Cc3ccccc3OC)cc1C)C2=O	3.01	2.17	-8.19	7.05	-1.24	26.6	2.01	20.4	-2.33	14.3	
CC(=O)Nc1cccc(-n2c(=O)n(C3CC3)c(=O)c3c(Nc4ccc(I)cc4F)n(C)c(=O)c(C)c32)c1											inhibition ([1]; Compound Concentration 1.0 uM, Hit No): 8.25%; inhibition ([2]; Compound Concentration 1.0 uM): 2.25%; inhibition ([3]; Compound Concentration 1.0 uM): 7.39%; inhibition ([4]; Compound Concentration 1.0 uM): -1.31%; inhibition ([5]; Compound Concentration 1.0 uM): 18.1%; inhibition ([6]; Compound Concentration 1.0 uM): 15.8%; inhibition ([7]; Compound Concentration 1.0 uM): 1.85%; inhibition ([8]; Compound Concentration 1.0 uM): 45.9%; inhibition ([9]; Compound Concentration 1.0 uM): 11.7%; inhibition ([10]; Compound Concentration 1.0 uM): 22.2%
